From US8222278B2, “Treatment of attention-deficit/hyperactivity disorder” (Abbott Laboratories, priority 2008, dated 2012)
Where two headings read alike, the source gives them in different places.

Key:
adults with ADHD [1] = experiment: Study A: weight and vital signs; assay type: in vivo, human; settings: final evaluation (LOCF)
Method: The treatment group differences in vital signs were analyzed using a Grizzle Model similar to the model used for the efficacy analyses with the exclusion of period-specific baselines.

[2] = Steady state pharmacokinetics of ABT-894 after multiple oral doses; assay type: in vivo, human; settings: for Cave / Cmin / Cmax / AUC: multiple doses, steady state; for Tmax: QD or BID
Method: Steady state pharmacokinetic parameters of ABT-894 were determined in randomized, double-blind, placebo-controlled, parallel-design or crossover-design studies conducted with ABT-894. In these studies ABT-894 or matching placebo was administered orally either once daily (QD) or twice daily (BID) to subjects and serial blood samples were collected in order to determine ABT-894 plasma concentrations and pharmacokinetic parameters.
As used herein, Cmax refers to peak plasma concentration of a therapeutic agent, in this case ABT-894, under steady state conditions.
As used herein, Cave refers to average plasma concentration of a therapeutic agent. in this case ABT-894, under steady state conditions.
As used herein, Cmin refers to the minimum plasma concentration of a therapeutic agent, in this case ABT-894, under steady state conditions.
As used herein. Tmax refers to the time required to reach peak concentration.
As used herein, AUC12 refers to the area under the curve determined for 12 hours.
As used herein. AUC24 refers to the area under the curve determined for 24 hours.

adults with ADHD [3] = experiment: Study A: patient-reported health outcomes (AAQoL, WPAI); assay type: in vivo, human; set-up: WPAI Absenteeism (employed), Mean Diff. / WPAI Impaired Work Effectiveness (employed), Mean Diff. / AAQoL Total, Mean Diff. / WPAI Overall Activity Impairment (all), Mean Diff. / WPAI Overall Work Impairment (employed), Mean Diff.: scale not given here
Method: A clinical study (Study A) was conducted to assess the safety and efficacy of ABT-894 compared to placebo in adults with ADHD and to evaluate the dose-response relationship.
Subjects in each dose group received, in random order, both ABT-894 and placebo according to a 2×2 crossover design. Each treatment period was 4 weeks separated by a 2-week washout period.
Secondary efficacy endpoints included the CAARS:Inv Inattentive and Hyperactive/Impulsive Subscale Scores, Clinical Global Impression-ADHD-Severity Scale (CGI-ADHD-S). Adult ADHD Investigator Symptom Report Scale (AISRS), including total and subscales, and the Self-rated Connors Adult ADHD Rating Scale (CAARS-Self). Health outcomes including the Adult ADHD Quality of Life Scale (AAQoL) and Work Productivity and Activity Impairment Questionnaire (WPAI) were used to evaluate the validity of these scales in this study population for use in subsequent clinical trials.

adults with ADHD [4] = settings: human, in vivo, 4 weeks

Clc1cc(N2C[C@@H]3CN[C@@H]3C2)cnc1Cl [ABT-894, 3-(5,6-Dichloro-pyridin-3-yl)-1S,5S-3,6-diazabicyclo[3.2.0]heptane]
Diastolic BP, mean difference from placebo (adults with ADHD [1]; ABT-894 1 mg QD): 0.28 mm Hg | Pulse, mean difference from placebo (adults with ADHD [1]; ABT-894 1 mg QD): −0.24 bpm | Systolic BP, mean difference from placebo (adults with ADHD [1]; ABT-894 1 mg QD): 1.36 mm Hg | Weight, mean difference from placebo (adults with ADHD [1]; ABT-894 1 mg QD): 0.48 kg | Diastolic BP, mean difference from placebo (adults with ADHD [1]; ABT-894 2 mg QD): 0.62 mm Hg | Pulse, mean difference from placebo (adults with ADHD [1]; ABT-894 2 mg QD): 0.42 bpm | Systolic BP, mean difference from placebo (adults with ADHD [1]; ABT-894 2 mg QD): 1.07 mm Hg | Weight, mean difference from placebo (adults with ADHD [1]; ABT-894 2 mg QD): 0.09 kg | Diastolic BP, mean difference from placebo (adults with ADHD [1]; ABT-894 4 mg BID): −2.21 mm Hg | Pulse, mean difference from placebo (adults with ADHD [1]; ABT-894 4 mg BID): 0.98 bpm | Systolic BP, mean difference from placebo (adults with ADHD [1]; ABT-894 4 mg BID): −0.48 mm Hg | Weight, mean difference from placebo (adults with ADHD [1]; ABT-894 4 mg BID): -0.08 kg | Diastolic BP, mean difference from placebo (adults with ADHD [1]; ABT-894 4 mg QD): 0.23 mm Hg | Pulse, mean difference from placebo (adults with ADHD [1]; ABT-894 4 mg QD): 3.14 bpm | Systolic BP, mean difference from placebo (adults with ADHD [1]; ABT-894 4 mg QD): −0.08 mm Hg | Weight, mean difference from placebo (adults with ADHD [1]; ABT-894 4 mg QD): 0.04 kg | Cave ([2]; 2 mg QD, plasma): about 2 ng/mL | Cmin ([2]; 2 mg QD, plasma): about 0.3 ng/mL | Cave ([2]; 4 mg BID, plasma): 6 to 10 ng/mL | Cmin ([2]; 4 mg BID, plasma): 2 to 4 ng/mL | Cmax ([2]; human, oral, 2 mg QD, plasma): ~5 ng/mL | AUC ([2]; human, oral, 2 mg QD, plasma, read-out: AUC24): ~46 ng·h/mL | Cmax ([2]; human, oral, 4 mg BID, plasma): 11 to 15 ng/mL | AUC ([2]; human, oral, 4 mg BID, plasma, read-out: AUC12): 72 to 114 ng·h/mL | Tmax ([2]; human, plasma, po, read-out: Tmax): 2 to 4 h | Tmax ([2]; oral): 2 to 3 h | Measures of quality of life relative to placebo (adults with ADHD [3]; ABT-894 2 mg QD): improved measures of quality of life relative to placebo | WPAI Impaired Work Effectiveness (employed), Mean Diff. (adults with ADHD [3]; ABT-894 4 mg BID, N 22): −0.104 | WPAI Overall Work Impairment (employed), Mean Diff. (adults with ADHD [3]; ABT-894 4 mg BID, N 22): −0.093 | WPAI Overall Activity Impairment (all), Mean Diff. (adults with ADHD [3]; ABT-894 4 mg BID, N 43): −0.108 | Influenza-like illness, % of subjects (adults with ADHD [4]): (0) % | Influenza-like illness, number of subjects (adults with ADHD [4]): 0 subjects
